Experimental data reported in the NIST ThermoML archive (doi:10.1016/j.jct.2018.01.014).
Where “and” joins values, the source holds several entries; their conditions need not be identical. Equal values may be shown once.

Conditions: Liquid, Transpiration method

CN1CCC[C@H]1c1cccnc1 [(-)-3-(N-methylpyrrolidino)pyridine]
Conditions	vapor or sublimation pressure
288.7 K	0.002398 kPa
293.8 K	0.003508 kPa
298.5 K	0.005519 kPa
303.3 K	0.008212 kPa
308.2 K	0.01232 kPa and 0.01187 kPa
313.1 K	0.01822 kPa
318.1 K	0.02642 kPa
323 K	0.03648 kPa
327.9 K	0.05164 kPa
333.2 K	0.07337 kPa
335.7 K	0.08301 kPa
338.2 K	0.1012 kPa
340.7 K	0.1124 kPa
343.1 K	0.1387 kPa
345.6 K	0.1639 kPa
348.2 K	0.2061 kPa
350.6 K	0.222 kPa
353.2 K	0.2733 kPa
358.1 K	0.3726 kPa
363.2 K	0.5077 kPa
368.1 K	0.6692 kPa
373.1 K	0.8635 kPa
